Data published in US20260034135A1, “USE OF N6-BENZYLAMINOPURINE AS AN APPETITE SUPPRESSANT” (THE GOVERNING COUNCIL OF THE UNIVERSITY OF TORONTO, priority 2022, published 2026).

Columns and labels:
Npy, Agrp, Pomc = test: Hypothalamic feeding neuropeptide expression in mice by qRT-PCR; type: in vivo, CD-1 mice
Procedure: All protocols using mice were approved by the University Animal Care Committee of the University of Toronto and were performed in accordance with the Canadian Council on Animal Care. Animal experiments were performed in three separate animal facilities: Medical Sciences Building (MSB), Centre for Cellular and Biomolecular Research (CCBR) and the Biological Sciences Facility (BSF) due to ongoing construction and housing changes. Facilities and dates are indicated in each experimental cohort. N6-benzylaminopurine (BAP; also called N6-benzyladenine) was obtained from Sigma (B3408, cell culture grade in powder form; CAS number 1214-39-7). Male and female CD-1 mice aged 6-7 weeks were acquired from Charles Rivers and acclimated on a chow diet for one week prior to experimentation. Mice were then weight-matched and placed on either a 60% high fat diet (HFD) or sucrose-matched control diet for 4 weeks (from Research Diets: 60% HFD D12492 and the sucrose-matched control diet […]). After 3 weeks on the diet, mice were acclimated for one week to the drinking apparatus, a 50 mL canonical tube with a drinking tube. After 4 weeks on the diet, the mice were again weight-matched and randomly assigned to either the control or BAP group. […] The average dosages achieved using this method are as follows: male HFD (200 mg/kg/day), male control (157 mg/kg/day), female HFD (189 mg/kg/day), and female control (129.9 mg/kg/day). The mice were exposed continuously to the solutions for a total of 33 days. One week prior to the end of the experiment (day 28), the mice were fasted for 4 hr and underwent intraperitoneal insulin tolerance testing (ITT). After 33 days, the mice were sacrificed, and their tissues were collected. RNA was isolated from the collected hypothalamic and used to quantify gene expression via qRT-PCR. […] All mice were kept on the 60% HFD throughout the exposure period. The male mice were fed their respective emulsion for 11, 14 or 27 days (as indicated), and the female mice were fed for 12 or 36 days (as indicated). On day 12, the one cohort of male mice underwent general anesthetic for the purpose of post-experiment Bruker scanning. The male mice were then fed their assigned emulsion 2 hr prior to sacrificing and tissue collection. […] Hypothalamic collected from the mice were then used to isolate RNA and quantify gene expression using quantitative reverse transcription polymerase chain reaction (qRT-PCR). For cell culture experiments, total RNA was isolated using PureLink RNA isolation kit (Thermofisher Scientific, Burlington, ON, Canada) according to the manufacturer's instruction with on column DNase step (PureLink DNAse kit) or DNase I treatment to remove genomic DNA. For mouse experiments, total RNA was isolated using mirVana PARIS RNA and native protein isolation kit (Thermofisher Scientific). […] Quantitative reverse transcription polymerase chain reaction (RT-qPCR) was performed with 12.5 ng of cDNA amplified with Platinum SYBR green qPCR SuperMix-UDG with ROX on an Applied Biosystems Prism 7900HT or PowerTrack Green Master Mix on an Applied Biosystems QuantStudio 5 and gene specific primers as per manufacturer's instructions (Table 1). Data was analyzed using […] and normalized to reference gene, either 60S ribosomal protein L7 (Rpl7) or Histone 3a (His).

[1] = system: mHypoA-POMC/GFP-2 cell line; test: Gene expression by qRT-PCR in mHypoA-POMC/GFP-2 hypothalamic cell line; type: cell-based, mouse; conditions: 100 μM BAP, 16 hr
Procedure: Hypothalamic neurons from embryonic and adult mice were previously immortalized to generate the clonal cell lines mHypoE-46, mHypoE-44, mHypoE-41, mHypoE-38, mHypoA-59, a FAC-sorted POMC/GFP mouse-derived cell line, mHypoA-POMC/GFP-2, and a mixed culture mHypoA-Bmal1-WT/F cell line (6, 13, 14). The mHypoE-46, mHypoE-44, and mHypoA-Bmal1-WT/F lines were cultured in DMEM containing 1000 mg/L glucose supplemented with 5% FBS and 1% pen/strep. The mHypoE-41, mHypoE-38, and mHypoA-59 cell lines were cultured in DMEM containing 4500 mg/L glucose supplemented with 2% FBS and 1% pen/strep. The mHypoA-POMC/GFP-2 line was cultured in DMEM containing 1000 mg/L glucose supplemented with 2% FBS and 1% pen/strep. […] Neuropeptide gene expression levels were determined by qRT-PCR.
For cell culture experiments, total RNA was isolated using PureLink RNA isolation kit (Thermofisher Scientific, Burlington, ON, Canada) according to the manufacturer's instruction with on column DNase step (PureLink DNAse kit) or DNase I treatment to remove genomic DNA. […] RNA quality and quantity were measured using Nanodrop 2000 and 500-1000 ng of complimentary DNA (cDNA) was synthesized with High Capacity cDNA Reverse Transcription kit (Applied biosystems, Thermofisher Scientific). […] Data was analyzed using […] and normalized to reference gene, either 60S ribosomal protein L7 (Rpl7) or Histone 3a (His).

[2] = female CD-1, 60% HFD, BAP in drinking water 33 days
[3] = male CD-1, HFD, BAP emulsion 11 days, fed 2 hr prior to sacrifice, cohort CCBR
[4] = male CD-1, HFD, BAP emulsion 14 days, cohort BSF
[5] = male CD-1, HFD, BAP emulsion, 28 days cohort BSF (27 days per FIG. 22)
[6] = male CD-1, sucrose-matched control diet, BAP in drinking water 33 days

c1ccc(CNc2ncnc3nc[nH]c23)cc1 [BAP, N6-benzylaminopurine]
hypothalamic Npy, Agrp, and Pomc expression (Npy, Agrp, Pomc; female CD-1, 60% HFD, 300 mg/kg BAP emulsion 36 days, cohort BSF): no changes
hypothalamic expression of feeding neuropeptides (Npy, Agrp, Pomc; female CD-1, 60% HFD, BAP emulsion 12 days, fed 16 hr prior to sacrifice, cohort CCBR (data not shown)): no significant changes
hypothalamic Agrp mRNA expression (Npy, Agrp, Pomc; [2]): no significant changes
hypothalamic Npy mRNA expression (Npy, Agrp, Pomc; [2]): no significant changes
hypothalamic Pomc mRNA expression (Npy, Agrp, Pomc; [2]): decreased
hypothalamic feeding neuropeptide expression (Npy, Agrp, Pomc) (Npy, Agrp, Pomc; female CD-1, sucrose-matched control diet, BAP in drinking water 33 days, trend to increased Npy and AgRP): do not have significant changes
hypothalamic feeding-related neuropeptide expression (Npy, Agrp, Pomc) vs control (Npy, Agrp, Pomc; male CD-1, 60% HFD, BAP in drinking water 33 days): did not have any significant changes
hypothalamic Agrp mRNA expression (Npy, Agrp, Pomc; [3]): significantly increased
hypothalamic Npy mRNA expression (Npy, Agrp, Pomc; [3]): significantly increased
hypothalamic Pomc mRNA expression (Npy, Agrp, Pomc; [3]): no significant changes
hypothalamic Agrp expression (Npy, Agrp, Pomc; [4]): modest increase
hypothalamic Npy expression (Npy, Agrp, Pomc; [4]): modest increase
hypothalamic Pomc expression (Npy, Agrp, Pomc; [4]): no change
hypothalamic Agrp expression (Npy, Agrp, Pomc; [5]): modest increase
hypothalamic Npy expression (Npy, Agrp, Pomc; [5]): modest increase
hypothalamic Pomc expression (Npy, Agrp, Pomc; [5]): no change
hypothalamic AgRP expression vs control (Npy, Agrp, Pomc; [6]): significantly higher
hypothalamic Npy expression vs control (Npy, Agrp, Pomc; [6]): significantly higher
hypothalamic Pomc mRNA expression vs control (Npy, Agrp, Pomc; [6]): no change
Pomc expression [1]: significantly induced
